ChEMBL document CHEMBL1811776, “Discovery of benzimidazole derivatives as novel multi-target EGFR, VEGFR-2 and PDGFR kinase inhibitors” (Bioorg Med Chem, 2011)
Each block holds one compound with its values, some of them ahead of it. The source made the active and inactive calls. No cut-off for these calls is given here.

Legend:
HepG2 [1] = experiment: cells; details: Homo sapiens, HepG2, 72 h
Description: Cytotoxicity against human HepG2 cells after 72 hrs by MTT assay

[2] = target: Platelet-derived growth factor receptor beta (Homo sapiens) (UniProt P09619); experiment: Inhibition of PDGFR-beta at 50 uM after 1 hrs by luminescence assay
Chain of Platelet-derived growth factor receptor beta (Homo sapiens) (P09619 whole entry): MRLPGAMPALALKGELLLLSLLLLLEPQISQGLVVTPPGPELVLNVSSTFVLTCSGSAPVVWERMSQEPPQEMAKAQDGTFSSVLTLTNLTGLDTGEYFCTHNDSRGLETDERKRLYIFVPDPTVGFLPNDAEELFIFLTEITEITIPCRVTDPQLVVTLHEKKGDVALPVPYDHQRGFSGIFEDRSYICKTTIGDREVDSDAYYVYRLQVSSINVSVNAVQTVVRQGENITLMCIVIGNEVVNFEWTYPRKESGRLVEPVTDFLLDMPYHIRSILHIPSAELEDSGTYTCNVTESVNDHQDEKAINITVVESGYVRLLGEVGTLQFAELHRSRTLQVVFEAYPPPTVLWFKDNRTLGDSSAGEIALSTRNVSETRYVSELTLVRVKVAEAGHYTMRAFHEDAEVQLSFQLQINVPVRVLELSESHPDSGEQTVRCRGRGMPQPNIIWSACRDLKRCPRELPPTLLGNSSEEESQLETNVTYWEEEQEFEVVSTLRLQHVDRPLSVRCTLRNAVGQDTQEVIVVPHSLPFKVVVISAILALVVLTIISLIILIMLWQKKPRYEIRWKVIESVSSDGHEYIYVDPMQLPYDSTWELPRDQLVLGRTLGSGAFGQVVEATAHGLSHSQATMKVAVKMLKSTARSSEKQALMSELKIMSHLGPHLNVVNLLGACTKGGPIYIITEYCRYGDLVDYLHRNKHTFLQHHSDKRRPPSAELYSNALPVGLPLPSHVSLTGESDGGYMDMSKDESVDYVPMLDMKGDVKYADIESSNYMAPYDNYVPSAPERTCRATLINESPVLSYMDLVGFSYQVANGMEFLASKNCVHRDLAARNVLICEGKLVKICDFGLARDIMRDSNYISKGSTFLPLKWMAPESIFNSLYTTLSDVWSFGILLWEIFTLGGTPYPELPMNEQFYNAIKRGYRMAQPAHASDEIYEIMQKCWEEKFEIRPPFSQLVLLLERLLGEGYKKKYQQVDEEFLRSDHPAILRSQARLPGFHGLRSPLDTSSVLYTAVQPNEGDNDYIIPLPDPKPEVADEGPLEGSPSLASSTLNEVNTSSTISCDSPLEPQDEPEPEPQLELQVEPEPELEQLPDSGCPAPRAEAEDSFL

[3] = target: Vascular endothelial growth factor receptor 1 (Homo sapiens) (UniProt P17948); experiment: Inhibition of VEGFR-1 at 50 uM after 1 hrs by luminescence assay
Chain of Vascular endothelial growth factor receptor 1 (Homo sapiens) (P17948 whole entry): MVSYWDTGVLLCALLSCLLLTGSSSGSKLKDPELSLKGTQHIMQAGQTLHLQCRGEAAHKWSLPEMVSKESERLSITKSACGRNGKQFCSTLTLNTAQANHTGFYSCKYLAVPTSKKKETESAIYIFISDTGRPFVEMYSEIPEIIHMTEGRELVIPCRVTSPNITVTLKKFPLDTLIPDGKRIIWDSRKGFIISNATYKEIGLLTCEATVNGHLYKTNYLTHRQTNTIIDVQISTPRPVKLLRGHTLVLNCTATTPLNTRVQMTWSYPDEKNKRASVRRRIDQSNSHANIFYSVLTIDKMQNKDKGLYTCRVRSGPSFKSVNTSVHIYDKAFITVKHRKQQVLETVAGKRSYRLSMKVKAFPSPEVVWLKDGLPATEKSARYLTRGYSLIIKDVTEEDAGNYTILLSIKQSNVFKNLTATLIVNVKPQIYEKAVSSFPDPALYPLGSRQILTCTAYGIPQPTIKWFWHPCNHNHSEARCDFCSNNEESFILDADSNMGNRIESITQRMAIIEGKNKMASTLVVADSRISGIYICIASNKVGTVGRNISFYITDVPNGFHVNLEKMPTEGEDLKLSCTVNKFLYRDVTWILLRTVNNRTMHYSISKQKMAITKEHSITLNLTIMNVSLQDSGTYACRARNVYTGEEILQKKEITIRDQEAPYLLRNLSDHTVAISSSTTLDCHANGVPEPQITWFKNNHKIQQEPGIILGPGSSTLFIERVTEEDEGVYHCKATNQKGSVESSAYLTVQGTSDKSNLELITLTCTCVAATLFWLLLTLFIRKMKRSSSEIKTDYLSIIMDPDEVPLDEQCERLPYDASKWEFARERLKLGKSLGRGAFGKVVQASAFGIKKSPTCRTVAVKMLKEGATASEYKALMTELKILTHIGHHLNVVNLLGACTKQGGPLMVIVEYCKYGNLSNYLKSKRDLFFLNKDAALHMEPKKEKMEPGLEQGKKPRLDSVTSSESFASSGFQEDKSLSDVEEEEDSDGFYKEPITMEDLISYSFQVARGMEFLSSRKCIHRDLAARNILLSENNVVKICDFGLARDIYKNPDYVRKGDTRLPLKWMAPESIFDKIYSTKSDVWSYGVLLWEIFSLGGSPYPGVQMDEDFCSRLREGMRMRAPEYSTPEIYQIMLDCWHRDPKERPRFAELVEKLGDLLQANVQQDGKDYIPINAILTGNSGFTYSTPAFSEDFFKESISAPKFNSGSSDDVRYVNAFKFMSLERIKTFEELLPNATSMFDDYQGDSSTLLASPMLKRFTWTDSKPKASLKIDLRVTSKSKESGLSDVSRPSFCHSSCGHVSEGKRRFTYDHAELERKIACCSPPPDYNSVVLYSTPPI

[4] = target: Vascular endothelial growth factor receptor 2 (Homo sapiens) (UniProt P35968); experiment: Inhibition of VEGFR-2 at 50 uM after 1 hrs by luminescence assay
[5] = target: Platelet-derived growth factor receptor alpha (Homo sapiens) (UniProt P16234); experiment: Inhibition of PDGFR-alpha at 50 uM after 1 hrs by luminescence assay
Chain of Platelet-derived growth factor receptor alpha (Homo sapiens) (P16234 whole entry, canonical isoform): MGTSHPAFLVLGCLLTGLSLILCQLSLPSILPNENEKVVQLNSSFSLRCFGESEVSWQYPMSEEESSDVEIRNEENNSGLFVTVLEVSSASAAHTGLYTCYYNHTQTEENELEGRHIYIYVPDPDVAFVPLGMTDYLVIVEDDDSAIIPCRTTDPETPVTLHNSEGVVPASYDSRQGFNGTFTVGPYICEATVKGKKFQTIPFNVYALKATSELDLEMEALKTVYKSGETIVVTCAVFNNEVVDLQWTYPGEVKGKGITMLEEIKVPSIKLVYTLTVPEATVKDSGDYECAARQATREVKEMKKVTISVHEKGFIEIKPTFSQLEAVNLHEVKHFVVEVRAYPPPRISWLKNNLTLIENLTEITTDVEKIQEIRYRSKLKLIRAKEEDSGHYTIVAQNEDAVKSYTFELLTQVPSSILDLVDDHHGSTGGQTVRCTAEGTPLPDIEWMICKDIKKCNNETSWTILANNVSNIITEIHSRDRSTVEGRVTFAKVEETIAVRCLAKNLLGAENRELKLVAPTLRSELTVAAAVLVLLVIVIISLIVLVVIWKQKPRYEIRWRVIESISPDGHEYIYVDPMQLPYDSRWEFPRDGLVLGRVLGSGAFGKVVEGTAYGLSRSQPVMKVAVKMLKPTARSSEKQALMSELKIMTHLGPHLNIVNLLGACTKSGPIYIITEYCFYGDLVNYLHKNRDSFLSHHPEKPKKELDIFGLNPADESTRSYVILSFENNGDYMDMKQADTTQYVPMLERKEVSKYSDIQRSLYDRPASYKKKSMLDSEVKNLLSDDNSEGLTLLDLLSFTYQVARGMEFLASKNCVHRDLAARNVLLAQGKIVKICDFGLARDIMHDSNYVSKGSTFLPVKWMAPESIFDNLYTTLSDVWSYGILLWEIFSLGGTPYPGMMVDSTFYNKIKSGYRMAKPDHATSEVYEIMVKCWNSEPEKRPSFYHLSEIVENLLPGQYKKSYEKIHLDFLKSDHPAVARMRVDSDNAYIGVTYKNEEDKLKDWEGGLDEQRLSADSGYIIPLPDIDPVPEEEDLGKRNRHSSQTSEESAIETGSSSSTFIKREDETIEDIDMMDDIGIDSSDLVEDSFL

[6] = target: Phosphatidylinositol 4,5-bisphosphate 3-kinase catalytic subunit alpha isoform (Homo sapiens) (UniProt P42336); experiment: Inhibition of PI3K-alpha at 50 uM after 1 hrs by luminescence assay
Chain of Phosphatidylinositol 4,5-bisphosphate 3-kinase catalytic subunit alpha isoform (Homo sapiens) (P42336 whole entry, canonical isoform): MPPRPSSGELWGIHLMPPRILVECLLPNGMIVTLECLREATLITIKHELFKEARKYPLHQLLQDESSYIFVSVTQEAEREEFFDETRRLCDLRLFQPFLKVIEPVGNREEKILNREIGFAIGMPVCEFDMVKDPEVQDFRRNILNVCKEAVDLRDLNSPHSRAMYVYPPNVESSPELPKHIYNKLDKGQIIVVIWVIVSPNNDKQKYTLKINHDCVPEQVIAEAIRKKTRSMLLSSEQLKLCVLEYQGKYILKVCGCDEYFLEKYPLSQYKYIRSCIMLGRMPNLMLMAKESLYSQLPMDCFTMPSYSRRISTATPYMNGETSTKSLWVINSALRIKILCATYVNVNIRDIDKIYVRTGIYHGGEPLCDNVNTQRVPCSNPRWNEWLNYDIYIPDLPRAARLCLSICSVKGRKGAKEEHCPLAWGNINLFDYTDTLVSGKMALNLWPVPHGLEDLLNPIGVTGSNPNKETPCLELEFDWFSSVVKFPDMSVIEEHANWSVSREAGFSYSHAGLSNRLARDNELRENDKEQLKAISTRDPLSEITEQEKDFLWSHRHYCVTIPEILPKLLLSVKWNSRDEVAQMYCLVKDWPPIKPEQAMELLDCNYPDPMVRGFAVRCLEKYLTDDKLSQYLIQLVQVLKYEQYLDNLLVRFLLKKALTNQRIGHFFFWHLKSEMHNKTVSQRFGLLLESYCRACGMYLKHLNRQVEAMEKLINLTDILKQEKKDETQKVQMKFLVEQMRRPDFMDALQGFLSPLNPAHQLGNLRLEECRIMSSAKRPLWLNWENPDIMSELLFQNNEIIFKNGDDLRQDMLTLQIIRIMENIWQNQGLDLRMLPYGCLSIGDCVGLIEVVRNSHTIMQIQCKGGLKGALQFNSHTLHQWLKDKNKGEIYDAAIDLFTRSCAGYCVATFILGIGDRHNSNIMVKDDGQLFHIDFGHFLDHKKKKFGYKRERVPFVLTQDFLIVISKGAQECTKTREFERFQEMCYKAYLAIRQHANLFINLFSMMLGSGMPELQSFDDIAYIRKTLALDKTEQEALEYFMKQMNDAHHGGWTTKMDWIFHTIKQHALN

[7] = target: Platelet-derived growth factor receptor beta (Homo sapiens) (UniProt P09619); experiment: Inhibition of PDGFR-beta at 20 uM after 1 hrs by luminescence assay
[8] = target: Vascular endothelial growth factor receptor 2 (Homo sapiens) (UniProt P35968); experiment: Inhibition of VEGFR-2 at 20 uM after 1 hrs by luminescence assay
[9] = target: Platelet-derived growth factor receptor alpha (Homo sapiens) (UniProt P16234); experiment: Inhibition of PDGFR-alpha at 20 uM after 1 hrs by luminescence assay
[10] = target: Epidermal growth factor receptor (Homo sapiens, UniProt P00533); experiment: Inhibition of EGFR after 1 hrs by luminescence assay
HepG2 [11] = experiment: Induction of apoptosis in human HepG2 cells assessed as early apoptotic cells at 2 uM after 72 hrs using annexin V-propidium iodide staining based flow cytometric analysis; type: functional
HepG2 [12] = experiment: Induction of apoptosis in human HepG2 cells assessed as late apoptotic or dead cells at 2 uM after 72 hrs using annexin V-propidium iodide staining based flow cytometric analysis; type: functional

SMILES: Cc1ccc(-c2nc3cc(NC(=O)CCCl)ccc3[nH]2)cc1
inhibition [2]: 24.6%
inhibition [3]: 3.3%
inhibition [4]: inactive
IC50 (HepG2 [1]): > 50 µM
inhibition [5]: 17%
inhibition [6]: inactive

SMILES: CCN1CCN(CC(=O)Nc2ccc3[nH]c(-c4cccn4C)nc3c2)CC1
IC50 (HepG2 [1]): > 50 µM

SMILES: COc1cc2c(c(OC)c1OC)-c1ccc(OC)c(=O)cc1[C@@H](NC(C)=O)CC2 [COLCHICINE]
IC50 (HepG2 [1]): 0.05 µM

SMILES: Cc1cnc(C(=O)Nc2ccc3[nH]c(-c4ccc(F)cc4)nc3c2)cn1
inhibition [7]: 0.5%
inhibition [8]: 0.5%
inhibition [9]: 5.43%

SMILES: Cc1ccc(-c2nc3cc(NC(=O)CCN4CCCCC4)ccc3[nH]2)cc1
IC50 (HepG2 [1]): 11.9 µM

SMILES: O=C(Nc1ccc2[nH]c(-c3ccc(F)cc3)nc2c1)c1cnccn1
inhibition [7]: 0.27%
inhibition [8]: 0.58%
inhibition [9]: 2.55%

SMILES: Cn1cccc1-c1nc2cc(NC(=O)CCCl)ccc2[nH]1
IC50 (HepG2 [1]): > 50 µM

SMILES: CN[C@@H]1C[C@H]2O[C@@](C)([C@@H]1OC)n1c3ccccc3c3c4c(c5c6ccccc6n2c5c31)C(=O)NC4
inhibition [3]: 93.4%
inhibition [9]: 97.5%
inhibition [5]: 92.6%
inhibition [6]: 97%

SMILES: CCN1CCN(CCC(=O)Nc2ccc3[nH]c(-c4ccc(Br)cc4)nc3c2)CC1
IC50 (HepG2 [1]): 27.4 µM

SMILES: CCN1CCN(CCC(=O)Nc2ccc3[nH]c(-c4ccc(C)cc4)nc3c2)CC1
IC50 (HepG2 [1]): 14.6 µM

SMILES: CCN1CCN(CCC(=O)Nc2ccc3[nH]c(-c4cccn4C)nc3c2)CC1
IC50 (HepG2 [1]): > 50 µM

SMILES: Cc1ccc(-c2nc3cc(NC(=O)CCl)ccc3[nH]2)cc1
inhibition [2]: 52.6%
inhibition [3]: 7.3%
inhibition [4]: 33.1%
IC50 [10]: 1.93 µM
IC50 (HepG2 [1]): 2 µM
Activity (HepG2 [11]): 28.6%
inhibition [5]: 42.7%
Activity (HepG2 [12]): 16.6%
inhibition [6]: inactive

SMILES: Cn1cccc1-c1nc2cc(NC(=O)CCl)ccc2[nH]1
inhibition [2]: 17.8%
inhibition [3]: inactive
inhibition [4]: 16.5%
IC50 [10]: 12.1 µM
IC50 (HepG2 [1]): 1.8 µM
Activity (HepG2 [11]): 22.8%
inhibition [5]: 18.7%
Activity (HepG2 [12]): 18.7%
inhibition [6]: 3.7%

Results, then the compound that gave them:

IC50 (HepG2 [1]): > 50 µM
SMILES: Cc1ccc(-c2nc3cc(NC(=O)CN4CCOCC4)ccc3[nH]2)cc1

IC50 (HepG2 [1]): > 50 µM
SMILES: Cc1ccc(-c2nc3cc(NC(=O)CN4CCCC4)ccc3[nH]2)cc1

IC50 (HepG2 [1]): > 50 µM
SMILES: Cc1ccc(-c2nc3cc(NC(=O)CN4CCN(C)CC4)ccc3[nH]2)cc1

IC50 (HepG2 [1]): 31.9 µM
SMILES: CCN1CCN(CC(=O)Nc2ccc3[nH]c(-c4ccc(C)cc4)nc3c2)CC1

IC50 (HepG2 [1]): 11.3 µM
SMILES: O=C(CCCl)Nc1ccc2[nH]c(-c3ccc(Br)cc3)nc2c1

IC50 (HepG2 [1]): > 50 µM
SMILES: Cc1ccc(-c2nc3cc(NC(=O)CN4CCCCC4)ccc3[nH]2)cc1

IC50 (HepG2 [1]): > 50 µM
SMILES: Cc1ccc(-c2nc3cc(NC(=O)CCN4CCN(C)CC4)ccc3[nH]2)cc1
